Test results as given in patent US20240189304A1, “BET PROTEIN INHIBITORS AND USE THEREOF” (The Regents of the University of California, priority 2021, published 2024).
Several values for one entry are separate records, joined by “and”; a condition that tells them apart may be missing. Equal entries are not always repeated.

How the values were obtained:
C4-2B MDVR cells [1] = experiment: Growth inhibition in combination with enzalutamide, coefficient of drug interaction; format: cell-based; details: for CDI with Enzalutamide / CDI: C4-2B MDVR cells; for CDI with Enzalutamide: treated for 5 days; for CDI: with enzalutamide; for 3 Day CDI / 5 Day CDI: with enzalutamide (MDV)
Method: C4-2B AbiR: abiraterone resistance; C4-2B ApaR: apalutamide resistance; C4-2B DaroR: darolutamide resistance; C4-2B MDVR: enzalutamide resistance.
Piperidine BET protein inhibitor 2 was also found to synergize with enzalutamide in inhibiting the growth of enzalutamide-resistant C4-2b MDVR cells, as shown in FIG. 6A and FIG. 6B.
Organoids generated from enzalutamide resistant LuCaP35CR PDX tumors were treated with either piperazine BET protein inhibitor 10 at concentrations as indicated (A) or in combination with enzalutamide 20 μM(C) for 7 days; representative organoids were imaged under the fluorescence microscope after stained by LIVE/DEAD Viability/Cytotoxicity Kit (Invitrogen MP03224). Organoid viability was measured using CellTiter Glo (Promega Catelog#G9681) for piperazine BET protein inhibitor 10 single treatment (B) and for combinational treatment with enzalutamide (D, E). […] Blue indicates synergy while red indicates antagonism between drugs. The coefficient of drug interaction (CDI) is calculated as follows: CDI=AB/(A×B). A is growth inhibition effect of treatment with the BET protein inhibitor. B is growth inhibition effect of enzalutamide treatment. AB is the growth inhibition effect of the combination treatment. […] The coefficient of drug interaction (CDI) of 20 μM enzalutamide with 0.5 μM BET protein inhibitor combination treatment were 0.97 and 0.91 respectively in LuCaP35CR organoids, evidencing a synergistic effect (CDI=0.4222, <1).
C4-2B MDVR […], and then total cell numbers were determined. * indicates significant difference from control and ** indicates significant difference between Enza drug treatment and the combination treatment; p<0.05.

cMYC = cMYC expression in C4-2B MDVR cells; format: cell-based; details: increasing doses, 2 days, Western blot
Method: (§1) C4-2B MDVR cells were treated with piperazine BET protein inhibitor 10 and the I-BET151 control at increasing doses for 2 days. The cell lysates were subjected to Western blot analysis for BRD4, AR-FL, and cMYC expression. As shown here, both piperazine BET protein inhibitor 10 and I-BET151 inhibited BRD4, AR-FL, and cMYC protein expression.

BRD4 = biological target: T1, BRD4 (Homo sapiens, UniProt O60885); experiment: Western blot of BRD4 expression in C4-2B MDVR cells; format: cell-based; details: increasing doses, 2 days
T1 construct: endogenous in cells; host or cells: C4-2B MDVR
Method: as §1

C4-2B MDVR cells [2] = experiment: C4-2B MDVR (enzalutamide resistant) cell growth, cell number; format: cell-based; details: for inhibition of cell growth (cell number): 5 μM
Method: (§2) Enzalutamide resistant C4-2B MDVR cells and darolutamide resistant C4-2B DaroR cells were treated with candidate compounds at 5 μM. BET (I-BET151; (R)-7-(3,5-dimethylisoxazol-4-yl)-8-methoxy-1-(1-(pyridin-2-yl)ethyl)-1,3-dihydro-2H-imidazo[4,5-c]quinolin-2-one; CAS RN 1300031-49-5) was used as the positive control at 5 μM. The cell number was determined. Only piperazine BET protein inhibitor 10 and the BET control inhibited both C4-2B MDVR and C4-2B DaroR cell growth at a concentration of 5 μM. Other compounds from the screen were not observed to effect cell growth under the test conditions.
C4-2B MDVR cells were treated with increasing doses of piperazine BET protein inhibitor 10 and compound 8 (8-(1-isopropyl-6-methyl-1H-pyrazolo[3,4-b]pyridine-5-carbonyl)-1,3-diazaspiro[4.5]decane-2,4-dione) as indicated. The cell number was determined after 3-day treatment.
(§3) C4-2B and C4-2B MDVR Cells were plated at 20,000 cells per well in 24-well plates and treated as indicated for 6 days. Total cell number was assessed by Coulter Counter. * indicates significant difference from control for each cell line, p<0.05.
C4-2B MDVR cells were plated at 20,000 cells per well in 24-well plates and treated for 5 days with the indicated compounds. The total cell number was determined and expressed as percentage of control. * indicates a significant difference from control, p<0.05.

AR-FL = experiment: Western blot of AR-FL expression in C4-2B MDVR cells; format: cell-based; details: increasing doses, 2 days
Method: as §1

C4-2B DaroR cells [3] = experiment: C4-2B DaroR (darolutamide resistant) cell growth, cell number; format: cell-based; details: 5 μM
Method: as §2

C4-2B cells = experiment: C4-2B cell growth, total cell number by Coulter Counter; format: cell-based; details: 1-40 μM, 6 days
Method: as §3

MYC signaling pathway = experiment: Analysis of total RNA isolated from treated cells; format: cell-based; details: data not shown
Brd4 ET = Brd4 ET (Homo sapiens, UniProt O60885); details: peptide construct, read-out: binding affinity; cited from earlier work
Molm-13 cells = details: seven days post transduction; cited from earlier work
C4-2B DaroR cells [4] = experiment: Growth inhibition in combination with darolutamide, coefficient of drug interaction; format: cell-based; details: with darolutamide (Daro)
[5] = system: LuCaP49 prostate cancer PDX; experiment: LuCaP49 prostate cancer PDX tumor growth in mice; format: in vivo; details: 60 mg/kg, i.p., daily, 5 days/week
Method: Mice bearing tumors from LuCaP49 prostate cancer PDX were treated with BETi-10 (60 mg/kg, i.p.) daily, 5 days/week. Tumor volume were measured and relative fold changes were calculated compared to the day 0 treatment.

C4-2B ApaR cells = experiment: Growth inhibition in combination with apalutamide, coefficient of drug interaction; format: cell-based; details: with apalutamide (Apa)
C4-2B AbiR cells = experiment: Growth inhibition in combination with abiraterone, coefficient of drug interaction; format: cell-based; details: with abiraterone (Abi)

## N[C@@H](Cc1c[nH]c2ccccc12)C(=O)Nc1cccc(C(=O)N2CCN(CCOc3ccc(Cl)cc3)CC2)c1 [Compound 12, (S)-2-Amino-N-(3-(4-(2-(4-chlorophenoxy)ethyl)piperazine-1-carbonyl)phenyl)-3-(1H-indol-3-yl)propenamide]
C4-2B MDVR cells [1]
  CDI with Enzalutamide: 0.90

## COc1cc2c(cc1-c1c(C)noc1C)ncc1[nH]c(=O)n([C@H](C)c3ccccn3)c12 [I-BET151, (R)-7-(3,5-dimethylisoxazol-4-yl)-8-methoxy-1-(1-(pyridin-2-yl)ethyl)-1,3-dihydro-2H-imidazo[4,5-c]quinolin-2-one, reference compound]
cMYC
  cMYC protein expression: inhibited
BRD4
  BRD4 protein expression: inhibited
C4-2B MDVR cells [2]
  inhibition of cell growth (cell number): inhibited
AR-FL
  AR-FL protein expression: inhibited
C4-2B DaroR cells [3]
  inhibition of cell growth (cell number): inhibited

## N[C@@H](Cc1c[nH]cn1)C(=O)Nc1cccc(C(=O)N2CCN(CCOc3ccc(Cl)cc3)CC2)c1 [Compound 14, (S)-2-Amino-N-(3-(4-(2-(4-chlorophenoxy)ethyl)piperazine-1-carbonyl)phenyl)-3-(1H-imidazol-4-yl)propenamide]
C4-2B MDVR cells [1]
  CDI with Enzalutamide: 0.82

## CC(C)n1nccc1NC(=O)C1CCCN(C(=O)c2ccc(Cl)c(Cl)c2)C1 (stereo not drawn) [Compound 2, 1-(3,4-dichlorobenzoyl)-N-(1-isopropyl-1H-pyrazol-5-yl)piperidine-3-carboxamide]
C4-2B MDVR cells [2]; 1-40 μM, 6 days
  inhibition of cell growth (total cell number): inhibit the growth of C4-2B and C4-2B MDVR cells in a dose-dependent manner
C4-2B cells
  inhibition of cell growth (total cell number): inhibit the growth of C4-2B and C4-2B MDVR cells in a dose-dependent manner
C4-2B MDVR cells [1]; 3 Day, 10 μM 2
  CDI: 0.751
C4-2B MDVR cells [1]; 3 Day, 20 μM 2
  CDI: 0.8105
C4-2B MDVR cells [1]; 5 Day, 10 μM 2
  CDI: 0.792
C4-2B MDVR cells [1]; 5 Day, 20 μM 2
  CDI: 0.702

## CC(C)(C)OC(=O)N[C@@H](Cc1c[nH]c2ccccc12)C(=O)Nc1cccc(C(=O)N2CCN(CCOc3ccc(Cl)cc3)CC2)c1 [Compound 13]
C4-2B MDVR cells [1]
  CDI with Enzalutamide: 0.81

## O=C(Nc1cccc(C(=O)N2CCN(CCOc3ccc(Cl)cc3)CC2)c1)c1ccco1 [Compound 11, N-(3-(4-(2-(4-chlorophenoxy)ethyl)piperazine-1-carbonyl)phenyl)furan-2-carboxamide]
C4-2B MDVR cells [1]
  CDI with Enzalutamide: 0.90
MYC signaling pathway
  inhibition of the MYC signaling pathway: inhibit the MYC signaling pathway

## Cc1nc2c(cnn2C(C)C)cc1C(=O)C1CCC2(CC1)NC(=O)NC2=O (stereo not drawn) [Compound 8, 8-(1-isopropyl-6-methyl-1H-pyrazolo[3,4-b]pyridine-5-carbonyl)-1,3-diazaspiro[4.5]decane-2,4-dione]
C4-2B MDVR cells [2]; 3-day treatment
  growth inhibition at increasing doses: no growth inhibition was observed

## 17 amino acid region TWRVQRSQNPLKIRKTR(389′-405′) (SEQ ID NO:1) of MLV IN, minimal binding region for Brd4 ET [EBM]
Brd4 ET
  Kd: ~160 nM
Molm-13 cells
  reduction in cellular proliferation compared to vector control cells: ~10 fold

## O=C(Nc1cccc(C(=O)N2CCN(CCOc3ccc(Cl)cc3)CC2)c1)C1CCCO1 (stereo not drawn) [Compound 10, N-(3-(4-(2-(4-chlorophenoxy)ethyl)piperazine-1-carbonyl)phenyl)tetrahydrofuran-2-carboxamide]
cMYC
  cMYC protein expression: inhibited
C4-2B DaroR cells [4]; 1 μM (10)
  3 Day CDI: 0.6607
  5 Day CDI: 0.4574
C4-2B DaroR cells [4]; 2.5 μM (10)
  3 Day CDI: 0.6111
  5 Day CDI: 0.38 and 0.3762
BRD4
  BRD4 protein expression: inhibited
C4-2B MDVR cells [2]
  inhibition of cell growth (cell number): inhibited
C4-2B MDVR cells [2]; 3-day treatment
  growth inhibition at increasing doses: inhibited growth of C4-2B MDVR cells in a dose-dependent manner
C4-2B MDVR cells [2]; 72 h, 3-day treatment
  IC50: 1700 to 2100 nM
AR-FL
  AR-FL protein expression: inhibited
[5]
  tumor growth (tumor volume, relative fold change to day 0): inhibit the growth
C4-2B ApaR cells; 1 μM (10)
  3 Day CDI: 0.7981
  5 Day CDI: 0.639
C4-2B ApaR cells; 2.5 μM (10)
  3 Day CDI: 0.7358
  5 Day CDI: 0.54 and 0.5381
C4-2B MDVR cells [1]
  CDI with Enzalutamide: 0.76
C4-2B MDVR cells [1]; 1 μM (10)
  3 Day CDI: 0.6791
  5 Day CDI: 0.3464
C4-2B MDVR cells [1]; 2.5 μM (10)
  3 Day CDI: 0.5693
  5 Day CDI: 0.26 and 0.2628
MYC signaling pathway
  inhibition of the MYC signaling pathway: inhibit the MYC signaling pathway
C4-2B DaroR cells [3]
  inhibition of cell growth (cell number): inhibited
C4-2B AbiR cells; 1 μM (10)
  3 Day CDI: 1.019
  5 Day CDI: 1.362
C4-2B AbiR cells; 2.5 μM (10)
  3 Day CDI: 0.914
  5 Day CDI: 0.98 and 0.9835
